Measurements reported in PubChem BioAssay AID2060622 (Molecular Pharmacology Branch, DTP, NCI, 2025).
“And” between values parts separate entries of the source, which are not always exact repeats. Equal entries are not always repeated.

System: 242566-281-R-J2-PDC complex spheroid viability
Experiment: Anticancer human tumor 242566-281-R-J2-PDC patient-derived pancreatic carcinoma cell line growth inhibition [CLK]
Details: for viability, T/C: stronger effect = lower value
Excerpt: A high-throughput screen of multi-cell type tumor spheroids was designed to identify active combinations of […] and targeted small molecules. Complex spheroids include a stromal component modeled by human endothelial cells (HUVEC) and fibroblasts modeled by human mesenchymal stem cells (MSCs). The concentration ranges selected for each drug and investigational agent were based upon clinically achievable concentrations if the clinical Cmax of the agent was known.
Compounds. The drugs and investigational agents: cirtuvivint (SM08502; NSC835563), CC-671 (NSC850746), vemurafenib (NSC761431), tapotoclax (NSC804041), sotorasib (NSC818433), adagrasib (NSC831453), MRTX-1133 (NSC836407), BAY2416964 (NSC825713), copanlisib (NSC816437), inavolisib (NSC800729), abemaciclib (NSC768073), osimertinib (NSC779217), entinostat (NSC756642), eltanexor (KPT-8602, NSC794443), venetoclax (NSC766270), ceralasertib (NSC777638), bortezomib (NSC756655), olaparib (NSC753686), talazoparib (NSC767125), alisertib (NSC759677), peposertib (NSC802822), gemcitabine (NSC613327), 5-fluorouracil (NSC19893), SN-38 (NSC673596), oxaliplatin (NSC266046), paclitaxel (NSC125973), and doxorubicin (NSC123127), were obtained from the National Cancer Institute (NCI) Developmental Therapeutics Program Chemical Repository. The FDA-approved anticancer drug set is available from the Developmental Therapeutics Program at https://dtp.cancer.gov/organization/dscb/obtaining/available plates.htm. […] The stock solutions were prepared in dimethyl sulfoxide (DMSO, Sigma-Aldrich, St. Louis, MO, cat. D2650), except for the platinum complexes which were prepared in saline (Quality Biological, Gaithersburg, MD, cat. 114-055-101), at 800-fold the tested concentration and stored at -70 degrees C prior to their use. All drugs and investigational agents were tested over a range starting from a high concentration at or near the clinical Cmax and decreasing in half-log increments. If the clinical Cmax for an agent had not been determined, the highest concentration tested was 10 microM.
Cell Culture. All cells were maintained in an incubator at 37 degrees C and 5% CO2 with 95% humidity. The PDC lines were cultured according to standard operating procedures established by the NCI PDMR. Briefly, all PDCs were thawed and cultured in Matrigel-coated flasks prepared with a working solution of 1X Ham's F-12 nutrient mix, without supplementation (Invitrogen, Waltham, MA, cat. 11765054), 100 U/mL penicillin-streptomycin (Invitrogen, cat. 15140122), and 2.5% Matrigel (Corning Inc., Corning, NY, cat. 354248) for the first three passages. The 947758-054-R-J2-PDC line was cultured in 6B/Colon 1A media, which includes advanced DMEM/F-12 (Thermo Fisher Scientific, cat. 12634028), 10 mM HEPES (Thermo Fisher Scientific, cat. 15630080), 1X GlutaMAX supplement (Thermo Fisher Scientific, cat. 35050061), 0.1 mg/mL primocin (InvivoGen, cat. ant-pm-2), 10% defined fetal bovine serum, heat inactivated (HyClone Laboratories Inc., cat. SH30070.03HI), 1.25 mM N-Acetyl-L-cysteine (Sigma-Aldrich, cat. A9165), 10 mM nicotinamide (Sigma-Aldrich, cat. N0636), 1X B-27 supplement (Thermo Fisher Scientific, cat. 17504044), 1X N-2 supplement (Thermo Fisher Scientific, cat. 17502048), and 10 microM Y-27632 dihydrochloride (Tocris Bioscience, cat. 1254). The 876862-298-R-J1-PDC was cultured in 6E media, which includes all 6B/Colon 1A media components plus 50% L-WRN conditioned media (ATCC, cat. CRL-3276), 50 ng/mL recombinant human EGF recombinant protein (hEGF; Thermo Fisher Scientific, cat. PHG0311), 10 ng/mL recombinant human fibroblast growth factor 10 (hGFG-10; PeproTech, cat. 100-26), 1 ng/mL recombinant human fibroblast growth factor 2 (hFGF-2; PeproTech, cat. 100-18B), and 1 µM prostaglandin E2 (PGE2; Tocris, cat. 2296). The 227483-062-R1-J1-PDC line was cultured in Panc media, containing all 6E components except hFGF-2, with the addition of 500 nM SB-431542 (Selleckchem, cat. S1067) and 10 nM gastrin (Tocris, cat. 3006). […]
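Further: spheroids exposed to compounds for 7 days before readout.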
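Wherever viability, T/C is given: 100% = DMSO vehicle control wells.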

For `CNC(=O)c1ccc(Nc2nc(OC3CCCC3)c3c(-c4ccc5nc(C)oc5c4)c[nH]c3n2)c(OC)c1`, the viability, T/C (compound 1 µM) was 69.1% [middle of 12 runs], the viability, T/C (compound 3.16 µM) was 61% [middle of 12 runs] and the viability, T/C (compound 10 µM) was 55.9% [middle of 12 runs]. The IC50 (compound alone, run of 08/01/2023) was > 10000 nM and 2630 nM.

In the case of `COc1ccc([C@@H](O)c2cc(-c3ncnc4cc(N5CCOCC5)ccc34)c(F)cc2Cl)nn1`, the viability, T/C (compound 0.0316 µM) is reported as 112% and 89.3%, the viability, T/C (compound 0.1 µM) is reported as 111% and 92.2% and the viability, T/C (compound 0.316 µM) is reported as 96.7% and 104%. The viability, T/C (compound 1 µM) was 83.7% and 91.3%, the viability, T/C (compound 3.16 µM) was 77.1% and 92.4% and the viability, T/C (compound 10 µM) was 48.2% and 71.3%. The IC50 (curve of compound) was over 10000 nM.

With `COc1cccc2c1C(=O)c1c(O)c3c(c(O)c1C2=O)CC(O)(C(=O)CO)CC3OC1CC(N)C(O)C(C)O1` (stereo not given) the viability, T/C (compound 0.0316 µM) was 66.3% and 79%, the viability, T/C (compound 0.1 µM) was 41.5% and 64.7% and the viability, T/C (compound 0.316 µM) was 15.3% and 35.8%. For the same compound, the viability, T/C (compound 1 µM) was 7.56% and 20.2%, the viability, T/C (compound 3.16 µM) was 1.88% and 6.69% and the viability, T/C (compound 10 µM) was 1.33% and 1.37%. The IC50 (curve of compound) was 66.6 nM and 183 nM.

Work on `C=CC(=O)N1CCN(c2nc(=O)n(-c3c(C)ccnc3C(C)C)c3nc(-c4c(O)cccc4F)c(F)cc23)C(C)C1` (stereo not given) + CN1CCN(c2cc(C(=O)Nc3cc4cc(-c5cnn(C)c5)ccc4cn3)ccn2)CC1 yielded an IC50 (curve of first compound, second compound 0.0316 µM) of over 10000 nM, an IC50 (curve of first compound, second compound 0.1 µM) of over 10000 nM and an IC50 (curve of first compound, second compound 0.316 µM) of under 31.6 nM. For the same compound, the IC50 (curve of first compound, second compound 1 µM) was under 31.6 nM, the IC50 (curve of first compound, second compound 3.16 µM) was under 31.6 nM and the IC50 (curve of first compound, second compound 10 µM) was under 31.6 nM. It also gave a viability, T/C (second compound 0.0316 µM, first compound 0.0316 µM) of 113%, a viability, T/C (second compound 0.0316 µM, first compound 0.1 µM) of 105% and a viability, T/C (second compound 0.0316 µM, first compound 0.316 µM) of 102%. It also gave a viability, T/C (second compound 0.0316 µM, first compound 1 µM) of 117%, a viability, T/C (second compound 0.0316 µM, first compound 3.16 µM) of 103% and a viability, T/C (second compound 0.0316 µM, first compound 10 µM) of 72.9%. For the same compound, the viability, T/C (second compound 0.1 µM, first compound 0.0316 µM) was 106%, the viability, T/C (second compound 0.1 µM, first compound 0.1 µM) was 94.3% and the viability, T/C (second compound 0.1 µM, first compound 0.316 µM) was 81.6%. For the same compound, the viability, T/C (second compound 0.1 µM, first compound 1 µM) was 109%, the viability, T/C (second compound 0.1 µM, first compound 3.16 µM) was 105% and the viability, T/C (second compound 0.1 µM, first compound 10 µM) was 67.5%. For the same compound, the viability, T/C (second compound 0.316 µM, first compound 0.0316 µM) was 47.2%, the viability, T/C (second compound 0.316 µM, first compound 0.1 µM) was 47.3% and the viability, T/C (second compound 0.316 µM, first compound 0.316 µM) was 40.8%. The viability, T/C (second compound 0.316 µM, first compound 1 µM) was 45.2%, the viability, T/C (second compound 0.316 µM, first compound 3.16 µM) was 48.2% and the viability, T/C (second compound 0.316 µM, first compound 10 µM) was 23.4%. It also gave a viability, T/C (second compound 1 µM, first compound 0.0316 µM) of 5.06%, a viability, T/C (second compound 1 µM, first compound 0.1 µM) of 5.31% and a viability, T/C (second compound 1 µM, first compound 0.316 µM) of 6.97%. The viability, T/C (second compound 1 µM, first compound 1 µM) was 9.26%, the viability, T/C (second compound 1 µM, first compound 3.16 µM) was 11.1% and the viability, T/C (second compound 1 µM, first compound 10 µM) was 6.36%. For the same compound, the viability, T/C (second compound 3.16 µM, first compound 0.0316 µM) was 7.67%, the viability, T/C (second compound 3.16 µM, first compound 0.1 µM) was 8.25% and the viability, T/C (second compound 3.16 µM, first compound 0.316 µM) was 11.1%. For the same compound, the viability, T/C (second compound 3.16 µM, first compound 1 µM) was 11.7%, the viability, T/C (second compound 3.16 µM, first compound 3.16 µM) was 11.6% and the viability, T/C (second compound 3.16 µM, first compound 10 µM) was 8.7%. For the same compound, the viability, T/C (second compound 10 µM, first compound 0.0316 µM) was 2.18%, the viability, T/C (second compound 10 µM, first compound 0.1 µM) was 2.58% and the viability, T/C (second compound 10 µM, first compound 0.316 µM) was 2.81%. It also gave a viability, T/C (second compound 10 µM, first compound 1 µM) of 4.46%, a viability, T/C (second compound 10 µM, first compound 3.16 µM) of 4.9% and a viability, T/C (second compound 10 µM, first compound 10 µM) of 2.7%.
